Results published in patent US10961200B2, “Small molecule inhibitors of lactate dehydrogenase and methods of use thereof” (THE UNITED STATES OF AMERICA, AS REPRESENTED BY THE …, priority 2014, dated 2021).
Like-named read-outs stand apart in the source and are kept apart here.

Legend:
Human LDHA = Human LDHA (Homo sapiens (Human), UniProt P00338); assay: human LDHA primary biochemical assay (resazurin/diaphorase coupled, fluorescence)
Excerpt: Test compounds were placed in a Greiner Bio-One (Monroe, N.C.) 1536-well black solid bottom assay plate. 200 millimolar (mM) Tris HCl, pH 7.4, 100 micromolar […] EDTA and 0.01% TWEEN-20™, final concentration, was used as the assay buffer. The LDHA reagent was 2 nanomolar (nM) Human LDHA (Meridian Life Science, Inc., Memphis, Tenn.), final concentration, in assay buffer.

MiaPaCa2 cells = assay: cell-based HT lactate assay, colorimetric/fluorometric detection (inhibition of lactate production); settings: class symbols, 0 to 3 pluses
[1] = read-out: Inhibitory activity IC50
[2] = LDHA inhibitory activity, activity level based on IC50 (Table 7)
[3] = LDHA inhibitory activity, assay of Example 1, activity level classes

Structure (SMILES) | IC50 (Human LDHA; [1]) [nM] | IC50 (MiaPaCa2 cells; Homo sapiens, MIA PaCa-2) [nM] | IC50 (Human LDHA; [2]) [nM] | IC50 (MiaPaCa2 cells) [nM] | IC50 (Human LDHA; [3]) [nM]
NS(=O)(=O)c1ccc(Cc2c(C3CC3(F)F)nn(-c3nc(C(=O)O)cs3)c2-c2cccc(-c3ccccc3)c2)cc1 (centres unmarked) [Compound 206, 2-(5-([1,1′-biphenyl]-3-yl)-3-(2,2-difluorocyclopropyl)-4-(4-sulfamoylbenzyl)-1H-pyrazol-1-yl)thiazole-4-carboxylic acid] | 1000 to 57000 | 1000 to 10000 | – | – | –
Cc1ccc(-c2cc(-c3nn(-c4nc(C(=O)O)cs4)c(CC4CC4)c3Cc3ccc(S(N)(=O)=O)cc3F)ccc2F)s1 [Compound 233, 2-(5-(cyclopropylmethyl)-3-(4-fluoro-3-(5-methylthiophen-2-yl)phenyl)-4-(2-fluoro-4-sulfamoylbenzyl)-1H-pyrazol-1-yl)thiazole-4-carboxylic acid] | < 100 | < 1000 | – | – | –
NS(=O)(=O)c1ccc(Cc2c(-c3ccc(F)c(C#CC4(O)CCCC4)c3)nn(-c3nc(C(=O)O)cs3)c2CC2CC2)cc1F [Compound 412] | – | – | < 100 | 1000 to 10000 | –
COc1cccc(-c2cc(-c3nn(-c4nc(C(=O)O)cs4)c(CC4CC4)c3Cc3ccc(S(N)(=O)=O)cc3)ccc2F)c1 [Compound 237] | – | – | – | 1000 to 10000 | < 100
CCOC(=O)c1csc(-n2nc(-c3ccc(F)c(C#CC4CCCC4)c3)c(Cc3ccc([S+](N)(=O)[O-])cc3)c2CC2CC2)n1 [Compound 429] | – | – | 1000 to 57000 | > 57000 | –
NS(=O)(=O)c1ccc(Cc2c(-c3cccc(-c4ccccc4)c3)nn(-c3nc(C(=O)O)cs3)c2CCC2CC2)cc1 [Compound 203, 2-(3-([1,1′-biphenyl]-3-yl)-5-(2-cyclopropylethyl)-4-(4-sulfamoylbenzyl)-1H-pyrazol-1-yl)thiazole-4-carboxylic acid] | – | < 1000 | – | – | < 100
NS(=O)(=O)c1ccc(Cc2c(-c3ccc(F)c(C4CC4)c3)nn(-c3nc(C(=O)O)cs3)c2CC2CC2)cc1Cl [Compound 406] | – | – | < 100 | 1000 to 10000 | –
CCOC(=O)c1csc(-n2nc(-c3cccc(-c4ccc(C)cc4)c3)c(Cc3ccc(S(N)(=O)=O)c(F)c3)c2CC2CC2)n1 [Compound 266] | – | – | – | > 57000 | 1000 to 57000
NS(=O)(=O)c1ccc(Cc2c(-c3ccc(F)c(OCC4CCCO4)c3)nn(-c3nc(C(=O)O)cs3)c2CC2CC2)cc1F (centres unmarked) [Compound 469, 2-(5-(cyclopropylmethyl)-3-(4-fluoro-3-((tetrahydrofuran-2-yl)methoxy)phenyl)-4-(3-fluoro-4-sulfamoylbenzyl)-1H-pyrazol-1-yl)thiazole-4-carboxylic acid] | – | 1000 to 10000 | < 100 | – | –
NS(=O)(=O)c1ccc(Cc2c(-c3ccc(F)c(-c4ccccc4)c3)nn(-c3nc(C(=O)O)cs3)c2CC2CC2)cc1 [Compound 257] | – | – | – | < 1000 | < 100
N[S+](=O)([O-])c1ccc(Cc2c(-c3ccc(F)c(C4CCC4)c3)nn(-c3nc(C(=O)O)cs3)c2CC2CC2)cc1F [Compound 382] | – | – | < 100 | < 1000 | –
CN1CCC(c2cc(-c3nn(-c4nc(C(=O)O)cs4)c(CC4CC4)c3Cc3ccc([S+](N)(=O)[O-])c(F)c3)ccc2F)CC1 [Compound 390] | – | – | < 100 | > 57000 | –
NS(=O)(=O)c1ccc(Cc2c(-c3cccc(OC4CCCC4)c3)nn(-c3nc(C(=O)O)cs3)c2CC2CC2)cc1 [Compound 337] | – | – | – | < 1000 | < 100
CC(C)(O)C#Cc1cc(-c2nn(-c3nc(C(=O)O)cs3)c(CC3CC3)c2Cc2ccc(S(N)(=O)=O)c(F)c2)ccc1F [Compound 265] | – | – | – | 1000 to 10000 | < 100
N[S+](=O)([O-])c1ccc(Cc2c(CC3CC3)nn(-c3nc(C(=O)O)cs3)c2-c2ccc(C(O)(C3CC3)C(F)(F)F)cc2)cc1F (centres unmarked) [Compound 399] | – | > 57000 | 1000 to 57000 | – | –
NS(=O)(=O)c1ccc(Cc2c(-c3cccc(N4CCCC(C(F)(F)F)C4)c3)nn(-c3nc(C(=O)O)cs3)c2CC2CC2)cc1F (centres unmarked) [Compound 396] | – | – | < 100 | 1000 to 10000 | –
NS(=O)(=O)c1ccc(Cc2c(-c3cccc(OCc4ccccc4)c3)nn(-c3nc(C(=O)O)cs3)c2C2CC2)cc1 [Compound 501, 2-(3-(3-(benzyloxy)phenyl)-5-cyclopropyl-4-(4-sulfamoylbenzyl)-1H-pyrazol-1-yl)thiazole-4-carboxylic acid] | – | 1000 to 10000 | < 100 | – | –
NS(=O)(=O)c1ccc(Cc2c(-c3ccc(F)c(OCC4CC4(F)F)c3)nn(-c3nc(C(=O)O)cs3)c2CC2CC2)cc1F (centres unmarked) [Compound 400] | – | – | < 100 | < 1000 | –
Cc1ccc(-c2cc(-c3nn(-c4nc(C(=O)O)cs4)c(CC4CC4)c3Cc3ccc(S(N)(=O)=O)cc3)ccc2F)cc1 [Compound 284] | – | – | – | < 1000 | < 100

Structure (SMILES) | IC50 (Human LDHA; [1]) [nM] | IC50 (MiaPaCa2 cells; Homo sapiens, MIA PaCa-2) [nM] | IC50 (Human LDHA; [2]) [nM] | IC50 (MiaPaCa2 cells) [nM] | IC50 (Human LDHA; [3]) [nM]
NS(=O)(=O)c1ccc(Cc2c(-c3cccc(Oc4ccccc4)c3)nn(-c3nc(C(=O)O)cs3)c2CC2CC2)cc1 [Compound 503, 2-(5-(cyclopropylmethyl)-3-(3-phenoxyphenyl)-4-(4-sulfamoylbenzyl)-1H-pyrazol-1-yl)thiazole-4-carboxylic Acid] | – | 1000 to 10000 | < 100 | – | –
N[S+](=O)([O-])c1ccc(Cc2c(-c3ccc(F)c(C4=CCNCC4)c3)nn(-c3nc(C(=O)O)cs3)c2CC2CC2)cc1F [Compound 369] | – | – | < 100 | 10000 to 57000 | –
NS(=O)(=O)c1ccc(Cc2c(-c3cccc(N4CCOCC4)c3)nn(-c3ncc(C(=O)O)s3)c2CC2CC2)cc1F [Compound 267] | – | – | – | 10000 to 57000 | < 100
Cc1ncc(-c2cc(-c3nn(-c4nc(C(=O)O)cs4)c(CC4CC4)c3Cc3ccc(S(N)(=O)=O)c(F)c3)ccc2F)s1 [Compound 232, 2-(5-(cyclopropylmethyl)-3-(4-fluoro-3-(2-methylthiazol-5-yl)phenyl)-4-(3-fluoro-4-sulfamoylbenzyl)-1H-pyrazol-1-yl)thiazole-4-carboxylic acid] | < 100 | < 1000 | – | – | –
NS(=O)(=O)c1ccc(Cc2c(-c3ccc(F)c(Oc4ccc(C(F)(F)F)cc4)c3)nn(-c3nc(C(=O)O)cs3)c2CC2CC2)cc1F [Compound 512, 2-(5-(cyclopropylmethyl)-3-(4-fluoro-3-(4-(trifluoromethyl)phenoxy)phenyl)-4-(3-fluoro-4-sulfamoylbenzyl)-1H-pyrazol-1-yl)thiazole-4-carboxylic Acid] | – | < 1000 | < 100 | – | –
NS(=O)(=O)c1ccc(Cc2c(-c3cc(F)cc(-c4cccc(F)c4)c3)nn(-c3nc(C(=O)O)cs3)c2CC2CC2)cc1 [Compound 523, 2-(5-(cyclopropylmethyl)-3-(3′,5-difluoro-[1,1′-biphenyl]-3-yl)-4-(4-sulfamoylbenzyl)-1H-pyrazol-1-yl)thiazole-4-carboxylic acid] | – | 1000 to 10000 | 100 to 1000 | – | –
NS(=O)(=O)c1ccc(Cc2c(-c3cccc(C4CCCC4)c3)nn(-c3nc(C(=O)O)cs3)c2CC2CC2)cc1 [Compound 372] | – | – | < 100 | 1000 to 10000 | –
Cn1cc(-c2cc(-c3nn(-c4nc(C(=O)O)cs4)c(CC4CC4)c3Cc3ccc(S(N)(=O)=O)c(F)c3)ccc2F)cn1 [Compound 217, 2-(5-(cyclopropylmethyl)-3-(4-fluoro-3-(1-methyl-1H-pyrazol-4-yl)phenyl)-4-(3-fluoro-4-sulfamoylbenzyl)-1H-pyrazol-1-yl)thiazole-4-carboxylic acid] | < 100 | 1000 to 10000 | – | – | –
N[S+](=O)([O-])c1ccc(Cc2c(-c3cccc(-c4cccc(F)c4)c3)nn(-c3nc(C(=O)O)cs3)c2CC2CC2)cc1 [Compound 370] | – | – | < 100 | 1000 to 10000 | –
NS(=O)(=O)c1ccc(Cc2c(-c3ccc(F)c(Oc4cccc(F)c4)c3)nn(-c3nc(C(=O)O)cs3)c2CC2CC2)cc1F [Compound 509, 2-(5-(cyclopropylmethyl)-3-(4-fluoro-3-(3-fluorophenoxy)phenyl)-4-(3-fluoro-4-sulfamoylbenzyl)-1H-pyrazol-1-yl)thiazole-4-carboxylic Acid] | – | < 1000 | < 100 | – | –
NS(=O)(=O)c1ccc(Cc2c(-c3cccc(-c4ccccc4)c3)nn(-c3nc(C(=O)O)cs3)c2CC2CC2(F)F)cc1 (centres unmarked) [Compound 207, 2-(3-([1,1′-biphenyl]-3-yl)-5-((2,2-difluorocyclopropyl)methyl)-4-(4-sulfamoylbenzyl)-1H-pyrazol-1-yl)thiazole-4-carboxylic acid] | – | 1000 to 10000 | – | – | < 100
CC(C)c1ccc(-c2cc(-c3nn(-c4nc(C(=O)O)cs4)c(CC4CC4)c3Cc3ccc([S+](N)(=O)[O-])cc3)ccc2F)cc1 [Compound 306] | – | – | – | < 1000 | < 100
CC(C)(C)NC(=O)c1cc(-c2nn(-c3nc(C(=O)O)cs3)c(CC3CC3)c2Cc2ccc(S(N)(=O)=O)c(F)c2)ccc1F [Compound 543, 2-(3-(3-(tert-butylcarbamoyl)-4-fluorophenyl)-5-(cyclopropylmethyl)-4-(3-fluoro-4-sulfamoylbenzyl)-1H-pyrazol-1-yl)thiazole-4-carboxylic acid] | – | 1000 to 10000 | < 100 | – | –
NS(=O)(=O)c1ccc(Cc2c(-c3cccc(OC4CCCC4)c3)nn(-c3nc(C(=O)O)cs3)c2CC2CC2)cc1F [Compound 336] | – | – | – | < 1000 | < 100
NS(=O)(=O)c1ccc(Cc2c(-c3cccc(N4CCC(F)(F)C4)c3)nn(-c3nc(C(=O)O)cs3)c2CC2CC2)cc1F [Compound 395] | – | – | 1000 to 57000 | 10000 to 57000 | –
NS(=O)(=O)c1ccc(Cc2c(-c3ccc(F)c(-c4cccc(F)c4)c3)nn(-c3nc(C(=O)O)cs3)c2CC2CC2)cc1 [Compound 239] | – | – | – | < 1000 | < 100
CC#Cc1cc(-c2nn(-c3nc(C(=O)OCC)cs3)c(CC3CC3)c2Cc2ccc(S(N)(=O)=O)c(F)c2)ccc1F [Compound 420] | – | – | 1000 to 57000 | > 57000 | –
Cc1ccc(-c2cc(-c3nn(-c4nc(C(=O)O)cs4)c(CC4CC4)c3Cc3ccc(S(N)(=O)=O)cc3F)ccc2F)cc1 [Compound 307] | – | – | – | < 1000 | < 100
